# From ChEMBL document CHEMBL5506003, “Design and biological evaluation of dual tubulin/HDAC inhibitors based on millepachine for treatment of prostate cancer” (Eur J Med Chem, 2024)
# How the values were obtained:
# [1] = Toxicity in BALB/c nude mouse xenografted with human PC-3 cells assessed as kidney damage at 10 to 20 mg/kg, iv administered every 2 days and measured after 3 weeks; assay type: organism-based; details: in vivo, 504 h, dose 10-20 mg/kg
# [2] = test system: PC-3; assay: Induction of apoptosis in human PC-3 cells assessed as early apoptotic cells at 0.32 uM incubated for 24 hrs by Annexin V-FITC and PI staining based flow cytometry (reference value: 1.32%); assay type: functional
# [3] = Clearance in Sprague-Dawley rat at 2 mg/kg, iv measured upto 24 hrs by HPLC-MS analysis; assay type: ADME, organism-based; details: in vivo
# [4] = test system: PC-3; assay: Induction of apoptosis in human PC-3 cells assessed as early apoptotic cells at 0.16 uM incubated for 24 hrs by Annexin V-FITC and PI staining based flow cytometry (reference value: 1.32%); assay type: functional
# [5] = test system: PC-3; assay: Induction of cell cycle arrest in human PC-3 cells assessed as G2/M phase cells at 0.16 uM incubated for 24 hrs by PI staining based flow cytometry analysis (reference value: 12.83%); assay type: functional
# [6] = test system: PC-3; assay: Induction of mitochondrial membrane potential loss in human PC-3 cells assessed as increase in monomer JC-1 level by measuring green fluorescence intensity at 0.32 uM incubated for 24 hrs by JC-1 staining based flow cytometry analysis (reference value: 6.44%); assay type: functional
smiles,measurement,setting,value
COc1ccc(/C=C/C(=O)c2ccc(OC)c3c2OC(C)(C)C=C3)cc1NCC(=O)NO,Activity,[1],Non-Toxic
same,Activity,[2],63.8%
same,clearance,[3],5 mL/min/kg
same,Activity,[4],15.5%
same,Activity,[5],50.56%
same,Activity,[6],38.8%
